Measured values from patent US7326786B2, “Thiazolinone unsubstituted quinolines” (Hoffmann-La Roche Inc., priority 2004, dated 2008).

Target: T1, recombinant human CDK1/Cyclin B complex (Homo sapiens, UniProt P06493)
T1 construct: made in house; host or cells: High Five insect cells (baculovirus) for CDK1/GST-cyclin B; E. coli M15 for the Rb substrate
Assay: CDK1/Cyclin B kinase assay (FlashPlate or HTRF)
Format: biochemical
Conditions: Rb protein substrate, Ki=IC50/(1+[S]/Km)
Procedure: To determine inhibition of CDK1 activity, either FlashPlate™ (NEN™-Life Science Products) assay or HTRF Homogeneous Time Resolved Fluorescence assay was performed. Both types of kinase assays were carried out using recombinant human CDK1/Cyclin B complex. GST-cyclinB (GST-cycB) and CDK1 cDNA clones in baculovirus vectors were provided by Dr. W. Harper at the Baylor College of Medicine, Houston, Tex. Proteins were co-expressed in High Five™ insect cells and the complex was purified on glutathione Sepharose resin (Pharmacia, Piscataway, N.J.) as previously described (Harper, J. W. et al. Cell 1993, 75, 805-816). A 6×-Histidine tagged truncated form of retinoblastoma (Rb) protein (amino acid 386-928) was used as the substrate for the CDK1/Cyclin B assay (the expression plasmid was provided by Dr. Veronica Sullivan, Department of Molecular Virology, Roche Research Centre, Welwyn Garden City, United Kingdom). The Rb protein is a natural substrate for phosphorylation by CDK1 (see Herwig and Strauss Eur. J. Biochem. Vol. 246 (1997) pp. 581-601 and the references cited therein). The expression of the 62Kd protein was under the control of an IPTG inducible promoter in an M15 E. coli strain. Cells were lysed by sonication and purification was carried out by binding lysates at pH 8.0 to a Ni-chelated agarose column pretreated with 1 mM imidazole. The resin was then washed several times with incrementally decreasing pH buffers to pH 6.0, and eluted with 500 mM imidazole. Eluted protein was dialysed against 20 mM HEPES [4-(2-hydroxyethyl)-1-piperazineethanesulfonic acid, sodium salt] pH 7.5, 30% glycerol, 200 mM NaCl, and 1 mM DTT (dithiothreitol). Purified Rb fusion protein stocks were quantitated for protein concentration, aliquoted, and stored at −70° C.
For the FlashPlate kinase asasy, 96-well FlashPlates were coated with Rb protein at 10 μg/ml, using 100 μl per well. Plates were incubated at 4° C. overnight or at room temperature for 3 hours on a shaker. To control for nonspecific phosphorylation, one row of wells was coated with 100 μl/well coating buffer (20 mM HEPES, 0.2 M NaCl). Plates were then washed twice with wash buffer (0.01% Tween 20 in phosphate-buffered saline). Compounds to be tested (“test compounds”) were added to the wells at 5× final concentration. Reactions were initiated by immediate addition of 40 μl reaction mix (25 mM HEPES, 20 mM MgCl2, 0.002% Tween 20, 2 mM DTT, 1 μM ATP, 4 nM 33P-ATP) and a sufficient amount of enzyme to give counts that were at least 10-fold above background. Plates were incubated at room temperature on a shaker for 30 minutes. Plates were washed four times with the wash buffer, sealed, and counted on the TopCount scintillation counter (Packard Instrument Co., Downers Grove, Ill.]. The percent inhibition of Rb phosphorylation, which is a measure of the inhibition of CDK activity, was determined according to the following formula:
[formula] where “test compound” refers to the average counts per minute of the test duplicates, “nonspecific” refers to the average counts per minute when no CDK1/Cyclin B, etc., was added, and “total” refers to the average counts per minute when no compound was added. The IC50 value is the concentration of test compound that reduces by 50% the protein-kinase induced incorporation of the radiolabel under the test conditions described. The value of the inhibitor constant Ki is calculated by the following: Ki=IC50/(1+[S]/Km), where [S] is the ATP concentration and Km is Michaelis constant.
The Homogeneous Time Resolved Fluorescence (HTRF) kinase assay was carried out in 96-well polypropylene plates (BD Biosciences, Bedford, Mass.). Test compounds were first dissolved in DMSO, and then diluted in kinase assay buffer 1 (25 mM HEPES, pH7.0, 8 mM MgCl2, 1.5 mM DTT, and 162 μM ATP) with DMSO concentration at 15%. The CDK1/Cyclin B enzyme was diluted in kinase assay buffer 2 (25 mM HEPES, pH 7.0, 8 mM MgCl2, 0.003% Tween 20, 0.045% BSA, 1.5 mM DTT, and 0.338 μM Rb protein). […]

T1 sequence (P06493 whole entry): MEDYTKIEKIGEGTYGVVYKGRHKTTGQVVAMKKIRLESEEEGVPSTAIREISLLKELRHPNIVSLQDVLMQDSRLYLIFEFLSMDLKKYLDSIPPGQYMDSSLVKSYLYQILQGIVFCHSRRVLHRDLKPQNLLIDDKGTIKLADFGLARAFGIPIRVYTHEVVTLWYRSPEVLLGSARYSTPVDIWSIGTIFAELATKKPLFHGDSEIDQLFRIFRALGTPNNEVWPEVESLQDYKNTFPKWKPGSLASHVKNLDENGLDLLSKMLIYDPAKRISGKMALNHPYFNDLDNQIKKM
T1 sequence (P14635 whole entry partner): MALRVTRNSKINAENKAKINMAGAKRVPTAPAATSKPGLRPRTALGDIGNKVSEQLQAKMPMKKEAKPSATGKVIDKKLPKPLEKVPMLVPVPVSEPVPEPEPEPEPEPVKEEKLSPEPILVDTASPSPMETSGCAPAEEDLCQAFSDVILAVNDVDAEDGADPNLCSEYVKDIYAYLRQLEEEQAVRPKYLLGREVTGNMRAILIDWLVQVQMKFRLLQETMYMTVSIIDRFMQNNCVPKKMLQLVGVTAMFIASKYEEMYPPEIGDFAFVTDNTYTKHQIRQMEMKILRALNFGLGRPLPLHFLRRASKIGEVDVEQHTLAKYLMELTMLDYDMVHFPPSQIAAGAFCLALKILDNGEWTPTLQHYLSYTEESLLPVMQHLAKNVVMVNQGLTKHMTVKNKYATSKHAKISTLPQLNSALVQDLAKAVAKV

Compound | Ki [nM]
COc1ccc(OC)c(CCNC2=NC(=O)/C(=C/c3ccc4ncccc4c3)S2)c1 [Example 5, 2-[2-(2,5-Dimethoxy-phenyl)-ethylamino]-5-[1-quinolin-6-yl-meth-(Z)-ylidene]-thiazol-4-one] | 838
COc1ccccc1CNC1=NC(=O)/C(=C/c2ccc3ncccc3c2)S1 [Example 10, 2-(2-Methoxy-benzylamino)-5-[1-quinolin-6-yl-meth-(Z)-ylidene]-thiazol-4-one] | 148
O=C1N=C(N[C@@H](CO)Cc2ccccc2)S/C1=C\c1ccc2ncccc2c1 [Example 20, 2-((R)-1-Hydroxymethyl-2-phenyl-ethylamino)-5-[1-quinolin-6-yl-meth-(Z)-ylidene]-thiazol-4-one] | 604
O=C1N=C(NC(CO)c2cccs2)S/C1=C\c1ccc2ncccc2c1 (stereo not drawn) [Example 25, 2-(2-Hydroxy-1-thiophen-2-yl-ethylamino)-5-[1-quinolin-6-yl-meth-(Z)-ylidene]-thiazol-4-one] | 596
O=C1N=C(N[C@@H]2c3ccccc3C[C@@H]2O)S/C1=C\c1ccc2ncccc2c1 [Example 30, 2-((1R,2S)-2-Hydroxy-indan-1-ylamino)-5-[1-quinolin-6-yl-meth-(Z)-ylidene]-thiazol-4-one] | 3000
O=C1N=C(NCC(c2ccccc2)N2CCOCC2)S/C1=C\c1ccc2ncccc2c1 (stereo not drawn) [Example 35, 2-(2-Morpholin-4-yl-2-phenyl-ethylamino)-5-[1-quinolin-6-yl-meth-(Z)-ylidene]-thiazol-4-one] | 3300
